# Measured values: patent US20170112861A1, “DRUG DELIVERY ENHANCER COMPRISING SUBSTANCE FOR ACTIVATING LYSOPHOSPHOLIPID RECEPTORS” (Osaka University, priority 2014, published 2017)
# Key:
# [1] = system: newly formed blood vessels in the choroid; experiment: Age-related macular degeneration model (laser-induced choroidal neovascularization), dextran leakage; assay type: in vivo, mice; conditions: LPA 3 mg/kg i.p. on days 5 and 6 after laser irradiation, day 7, vs control
# Source text: C57BL/6 NCrSlc mice aged 8 weeks (females, SLC, Inc.) were used. Tropicamide (Santen Pharmaceutical) was dropped in the eyes of the mice under anesthesia with pentobarbital (Kyoritsu Seiyaku Corporation) to dilate the pupil. The retina surrounding the optic disc of the ocular fundus was irradiated with a laser (Ultima 2000 SE) at four sites in each of the eyes of the mice under observation with a slit lamp microscope for the induction of choroidal neovascularization. The laser irradiation conditions were 150 mW, 0.05 seconds, and 75 μm. LPA (3 mg/kg in 100 μL PBS) was intraperitoneally administered to LPA group (n=3) on days 5 and 6 after laser irradiation, and PBS (100 μL) was intraperitoneally administered to control group (n=3) on days 5 and 6 after laser irradiation. On day 7 after laser irradiation (at 48 hours after first administration of LPA), FITC-labeled 70 kDa dextran (Sigma) was administered to the tail vein of the mice under anesthesia with pentobarbital. The dextran was prepared as a solution by dissolving and diluting the FITC-labeled 70 kDa dextran in PBS to a concentration of 5 mg/mL, and 50 μL of the solution was used for the administration. At 10 minutes after dextran administration, the eyeballs were collected. […]
# [2] = system: Mouse colon cancer colon 26 cells; experiment: Combined administration of LPA and oxaliplatin, tumor growth in colon 26 cell tumor-bearing mice; assay type: in vivo; conditions: colon 26 tumors in BALB/c mice; LPA 3 mg/kg i.p.; oxaliplatin 1.5 mg/kg i.p.
# Experimental: LLC cells were subcutaneously inoculated into C57BL/6 NCrSlc mice aged 8 weeks in the same manner as in Example 1. An LPA administration solution was prepared in the same manner as in Example 1. The anticancer drug used was 5-FU (Kyowa Hakko Kirin Co., Ltd.). The 5-FU was prepared as a solution in physiological saline (Otsuka Pharmaceutical Co., Ltd.). On day 7 post-inoculation of LLC cells, mice with a tumor volume of 30 to 50 mm^3 were selected and subjected to the test. The mice were divided into four groups: control group, 5-FU group, LPA group and 5-FU/LPA group (n=3). LPA (3 mg/kg in 100 μL PBS) or 5-FU (100 mg/kg in 100 μL PBS) or PBS (100 μL) was administered intraperitoneally. To 5-FU/LPA group, both LPA and 5-FU were administered intraperitoneally. LPA and PBS were administered once daily for consecutive seven days. 5-FU was administered twice in total, once a week for two weeks (on days 7 and 14 post-inoculation). The tumor size was measured over time after start of administration. The tumor volume was calculated by the formula: volume=length×width×height×0.5. Mice at 2 weeks after start of administration were photographed with a digital camera under anesthesia with pentobarbital. The tumors were harvested and photographed with a digital camera.
# Mouse colon cancer colon 26 cells were used. […]
# [3] = system: Mouse pancreatic vascular endothelial cell line (MS-1); experiment: In vitro barrier function of endothelial cell-cell junctions (ECIS-Zθ, resistance between cells Rb); assay type: cell-based; conditions: MS-1 cells, 10 μM
# Experimental: In vitro barrier function of the cell-cell junctions of vascular endothelial cells in the presence of LPA or VPC 31144 (S) was analyzed using a real-time cell ECIS-Zθ analyzer (Applied Biophysics).
# LPA and VPC 31144 (S) were each dissolved in 50% ethanol as a 10 mM LPA stock solution and stored at −30° C. Before use, the LPA stock solution was thawed and homogenized with an ultrasonic cleaner (SND Co., Ltd.) for 1 minute. The solution was diluted in a serum-free culture medium supplemented with 0.1% BSA to a concentration of 10 μM.
# Mouse pancreatic vascular endothelial cell line (MS-1) was used. The cells were suspended in DMEM (Sigma) containing 5% FBS. The cell suspension was seeded on a well plate with electrodes (8W10E+, 8 wells) specially designed for the analyzer at a density of 1×10^5 cells in 400 μL per well, and the cells were cultured overnight in an incubator to confluence. The medium was replaced by serum-free culture medium containing 0.1% BSA, and the cells were incubated for 4 hours. The medium was replaced by culture medium (serum-free culture medium containing 0.1% BSA) containing 10 μM LPA or VPC 31144 (S). The medium of the control cultures was replaced by serum-free culture medium containing 0.1% BSA. After replacement of the medium, resistance between cells (Rb) was measured in real time to evaluate the barrier function.
substance,measurement,setting,value
lysophosphatidic acid [LPA],leakage of FITC-labeled 70 kDa dextran from newly formed blood vessels,[1],the leakage of dextran was significantly inhibited
same,size of the newly formed blood vessels in the choroid,[1],no significant difference was observed
same,tumor growth (tumor volume),[2],"some inhibitory effects on tumor growth as compared with the control, up to day 17 post-inoculation"
same,duration of the increased barrier function,[3],the increased barrier function in endothelial cells was maintained over a long period of time
same,"electric resistance (Rb), barrier function in endothelial cells","[3]; serum-free medium with 0.1% BSA, vs control",increased the electric signals as compared with the control
